In paper PMC9321829 (Chembiochem, 2022):

Biological target: T1, TAL amo (Aeromonas molluscorum, UniProt R1H7C8)
T1 sequence (R1H7C8 1-531): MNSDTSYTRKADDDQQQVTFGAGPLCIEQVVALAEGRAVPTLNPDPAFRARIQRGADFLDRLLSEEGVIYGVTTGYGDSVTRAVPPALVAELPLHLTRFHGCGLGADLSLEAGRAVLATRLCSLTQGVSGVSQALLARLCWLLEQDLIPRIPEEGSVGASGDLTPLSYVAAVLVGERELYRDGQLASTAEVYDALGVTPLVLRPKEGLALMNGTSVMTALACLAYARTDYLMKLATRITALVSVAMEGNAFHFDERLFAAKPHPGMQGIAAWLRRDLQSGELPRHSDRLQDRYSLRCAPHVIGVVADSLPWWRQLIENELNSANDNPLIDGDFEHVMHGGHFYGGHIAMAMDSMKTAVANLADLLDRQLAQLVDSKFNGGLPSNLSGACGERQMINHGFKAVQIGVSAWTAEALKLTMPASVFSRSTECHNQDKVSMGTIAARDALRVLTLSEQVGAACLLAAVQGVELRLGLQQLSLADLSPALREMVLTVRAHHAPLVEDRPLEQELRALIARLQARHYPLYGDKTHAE
Assay: UV assay, cinnamic acid formation at […] nm
Type: biochemical
Conditions: 10 mM substrate, 20 mM PBS pH 7.5, 25 °C

Question: Which “UV assay, cinnamic acid formation at 290 nm” value does the source give for `N[C@@H](Cc1ccccc1)C(=O)O` [L-phenylalanine] here?
Answer: They presented a slight activity towards L‐phenylalanine.
